Assay results taken from PubChem BioAssay AID2060891 (Molecular Pharmacology Branch, DTP, NCI, 2025).

Tested on: K98450-129-R-PDC complex spheroid growth, percent test/control
Assay: Anticancer human tumor K98450-129-R-PDC patient-derived colon adenocarcinoma cell line growth inhibition [RAS]
Details: for IC50: curve of first compound; for viability, T/C: stronger effect = lower value; active = viability on the fitted dose curve at most 10% of control; inactive = the rest
Summary of the method: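 Multi-cell-type spheroids: tumor cells plus HUVEC endothelial cells and mesenchymal stem cells. RAS-pathway inhibitors were combined with targeted agents, each dosed in half-log steps down from clinical Cmax, or from 10 microM when Cmax was unknown.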
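Also: spheroids exposed to agents for seven days before the viability readout.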
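For viability, T/C in this document: luminescence used as a proxy for viable cell amount.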

C=CC(=O)N1CCN(c2nc(OCC3CCCN3C)nc3c(F)c(-c4nc(N)cc(C)c4C(F)(F)F)c(Cl)cc23)C(C)C1 (centres undefined) + CCn1c(-c2cc(N3CCN(C)CC3)cnc2C(C)OC)c2c3cc(ccc31)-c1csc(n1)CC(NC(=O)C1CC1C)C(=O)N1CCCC(N1)C(=O)OCC(C)(C)C2
90.6 nM: IC50 (second compound 0.000949 µM)
inactive: viability, T/C (second compound 0.000949 µM, first compound 0.00316 µM) 88% | viability, T/C (second compound 0.000949 µM, first compound 0.01 µM) 71.2% | viability, T/C (second compound 0.000949 µM, first compound 0.0316 µM) 69% | viability, T/C (second compound 0.000949 µM, first compound 0.1 µM) 44.4% | viability, T/C (second compound 0.000949 µM, first compound 0.316 µM) 40.1% | viability, T/C (second compound 0.000949 µM, first compound 1 µM) 34.5% | viability, T/C (second compound 0.003 µM, first compound 0.00316 µM) 88% | viability, T/C (second compound 0.003 µM, first compound 0.01 µM) 68.5% | viability, T/C (second compound 0.003 µM, first compound 0.0316 µM) 55.6% | viability, T/C (second compound 0.003 µM, first compound 0.1 µM) 41.8% | viability, T/C (second compound 0.003 µM, first compound 0.316 µM) 42.1% | viability, T/C (second compound 0.003 µM, first compound 1 µM) 34.8% | viability, T/C (second compound 0.00949 µM, first compound 0.00316 µM) 72.7% | viability, T/C (second compound 0.00949 µM, first compound 0.01 µM) 61.7% | viability, T/C (second compound 0.00949 µM, first compound 0.0316 µM) 49.8% | viability, T/C (second compound 0.00949 µM, first compound 0.1 µM) 37.2% | viability, T/C (second compound 0.00949 µM, first compound 0.316 µM) 29.1% | viability, T/C (second compound 0.00949 µM, first compound 1 µM) 20% | viability, T/C (second compound 0.03 µM, first compound 0.00316 µM) 44.8% | viability, T/C (second compound 0.03 µM, first compound 0.01 µM) 46.3% | viability, T/C (second compound 0.03 µM, first compound 0.0316 µM) 37.3% | viability, T/C (second compound 0.03 µM, first compound 0.1 µM) 19.8% | viability, T/C (second compound 0.03 µM, first compound 0.316 µM) 20.9% | viability, T/C (second compound 0.03 µM, first compound 1 µM) 18.1% | viability, T/C (second compound 0.0949 µM, first compound 0.00316 µM) 16.1% | viability, T/C (second compound 0.0949 µM, first compound 0.01 µM) 16.9% | viability, T/C (second compound 0.0949 µM, first compound 0.0316 µM) 14.4% | viability, T/C (second compound 0.0949 µM, first compound 0.1 µM) 14.7% | viability, T/C (second compound 0.0949 µM, first compound 0.316 µM) 14.3% | viability, T/C (second compound 0.0949 µM, first compound 1 µM) 12% | viability, T/C (second compound 0.3 µM, first compound 0.00316 µM) 10.9% | viability, T/C (second compound 0.3 µM, first compound 0.01 µM) 10.5% | viability, T/C (second compound 0.3 µM, first compound 0.0316 µM) 11.6% | viability, T/C (second compound 0.3 µM, first compound 0.1 µM) 10.3% | viability, T/C (second compound 0.3 µM, first compound 0.316 µM) 11.7% | viability, T/C (second compound 0.3 µM, first compound 1 µM) 12.4%
30.4 nM: IC50 (second compound 0.00949 µM)
52.7 nM: IC50 (second compound 0.003 µM)
< 3.16 nM: IC50 (second compound 0.03 µM) | IC50 (second compound 0.0949 µM) | IC50 (second compound 0.3 µM)

CC1(C)CCC(Nc2ncc(C(F)(F)F)c(-c3c[nH]c4c(P(C)(C)=O)c(C#N)ccc34)n2)CN1 (centres undefined) + CCn1c(-c2cc(N3CCN(C)CC3)cnc2C(C)OC)c2c3cc(ccc31)-c1csc(n1)CC(NC(=O)C1CC1C)C(=O)N1CCCC(N1)C(=O)OCC(C)(C)C2
> 300 nM: IC50 (second compound 0.000949 µM) | IC50 (second compound 0.003 µM) | IC50 (second compound 0.00949 µM) | IC50 (second compound 0.03 µM)
< 0.949 nM: IC50 (second compound 0.0949 µM) | IC50 (second compound 0.3 µM)
inactive: viability, T/C (second compound 0.000949 µM, first compound 0.000949 µM) 100% | viability, T/C (second compound 0.000949 µM, first compound 0.003 µM) 82.2% | viability, T/C (second compound 0.000949 µM, first compound 0.00949 µM) 96.2% | viability, T/C (second compound 0.000949 µM, first compound 0.03 µM) 89.7% | viability, T/C (second compound 0.000949 µM, first compound 0.0949 µM) 80.8% | viability, T/C (second compound 0.000949 µM, first compound 0.3 µM) 79.5% | viability, T/C (second compound 0.003 µM, first compound 0.000949 µM) 81.2% | viability, T/C (second compound 0.003 µM, first compound 0.003 µM) 83.2% | viability, T/C (second compound 0.003 µM, first compound 0.00949 µM) 85.6% | viability, T/C (second compound 0.003 µM, first compound 0.03 µM) 94.6% | viability, T/C (second compound 0.003 µM, first compound 0.0949 µM) 77.2% | viability, T/C (second compound 0.003 µM, first compound 0.3 µM) 69.4% | viability, T/C (second compound 0.00949 µM, first compound 0.000949 µM) 75.2% | viability, T/C (second compound 0.00949 µM, first compound 0.003 µM) 77.1% | viability, T/C (second compound 0.00949 µM, first compound 0.00949 µM) 76.7% | viability, T/C (second compound 0.00949 µM, first compound 0.03 µM) 77.8% | viability, T/C (second compound 0.00949 µM, first compound 0.0949 µM) 81.7% | viability, T/C (second compound 0.00949 µM, first compound 0.3 µM) 60.2% | viability, T/C (second compound 0.03 µM, first compound 0.000949 µM) 54.1% | viability, T/C (second compound 0.03 µM, first compound 0.003 µM) 49.5% | viability, T/C (second compound 0.03 µM, first compound 0.00949 µM) 51.2% | viability, T/C (second compound 0.03 µM, first compound 0.03 µM) 61.7% | viability, T/C (second compound 0.03 µM, first compound 0.0949 µM) 63.1% | viability, T/C (second compound 0.03 µM, first compound 0.3 µM) 43.8% | viability, T/C (second compound 0.0949 µM, first compound 0.000949 µM) 24.6% | viability, T/C (second compound 0.0949 µM, first compound 0.003 µM) 26.8% | viability, T/C (second compound 0.0949 µM, first compound 0.00949 µM) 30.6% | viability, T/C (second compound 0.0949 µM, first compound 0.03 µM) 35.1% | viability, T/C (second compound 0.0949 µM, first compound 0.0949 µM) 40.3% | viability, T/C (second compound 0.0949 µM, first compound 0.3 µM) 37% | viability, T/C (second compound 0.3 µM, first compound 0.000949 µM) 12.7% | viability, T/C (second compound 0.3 µM, first compound 0.003 µM) 14.7% | viability, T/C (second compound 0.3 µM, first compound 0.00949 µM) 17.9% | viability, T/C (second compound 0.3 µM, first compound 0.03 µM) 23.5% | viability, T/C (second compound 0.3 µM, first compound 0.0949 µM) 28.4% | viability, T/C (second compound 0.3 µM, first compound 0.3 µM) 25.2%
